Source: US10392385B2, “N-((1-phenyl-9H-pyrido[3,4-b]indol-3-yl)methyl)cinnamamides as potential anticancer agents and preparation thereof” (Council of Scientific & Industrial Research, priority 2016, dated 2019)
Values belong to the compound of their own block, whether it stands above or below them.

Assays:
A549 (lung cancer) = assay: MTT cytotoxicity assay, A549; format: cell-based; conditions: Homo sapiens, 48 h of drug treatment (footnote), average of three experiments
Description: (§1) The N-((1-phenyl-9H-pyrido[3,4-b]indol-3-yl)methyl)cinnamamides (1a-h, 2a-h and 3a-h) have been tested against five human cancer cell lines such as A549 (lung cancer), MCF-7 (breast cancer), B16 (melanoma), HeLa (cervical cancer) and NIH3T3 (mouse embryonic fibroblast cancer). All the cancer cell lines (HeLa, A549, MCF-7 and B16) were procured from National Centre for Cell Sciences (NCCS, Pune, India) and NIH 3T3 cell line was obtained from American Type Culture Collection (Rockville, Md., USA). Stock cells were cultured in DMEM supplemented with 10% Fetal Bovine Serum (FBS), in an humidified atmosphere of 5% CO2 at 37° C. until they are 80% confluent. To study the cytotoxicity of the compounds, after 80% confluence, cells were trypsinized with 0.1% trypsin-EDTA and harvested by centrifugation at 500×g. Serial dilutions of cells were made from 1×10^6 to 1×10^3 cells per mL The cells were seeded in triplicate in a 96 well plate. The cells were seeded in triplicate in a 96 well plate. […] The cell viability was determined by measuring the ability of cells to transform MTT to a purple coloured formazan dye. The absorbance of samples at 570 nm was measured using a UV-Visible spectrophotometer. Percentage of viable cells was calculated by using the formula given below.
(§2) Where the OD570 (sample) corresponds to absorbance obtained from the wells treated with compound and OD570 (control) represents the absorbance from the wells in which no compound was added.

MCF-7 (breast cancer) = assay: MTT cytotoxicity assay, MCF-7; format: cell-based; conditions: Homo sapiens, MCF7, average of three experiments
Description: as §1
(§3) Where the OD570 (sample) corresponds to absorbance obtained from the wells treated with compound and OD570 (control) represents the absorbance from the wells in which no compound was added. For these compounds results are expressed as half maximal inhibitory concentration (IC50) values and the anticancer activity data of 1a-h, 2a-h and 3a-h are shown in Table 2.

B16 (melanoma) = assay: MTT cytotoxicity assay, B16; format: cell-based; conditions: 48 h of drug treatment (footnote), average of three experiments
Description: as §1, §3

HeLa (cervical cancer) = assay: MTT cytotoxicity assay, HeLa; format: cell-based; conditions: Homo sapiens, of drug treatment (footnote), average of three experiments
Description: as §1, §3

[1] = tested on: NIH3T3 (mouse embryonic fibroblast cell line); assay: MTT cytotoxicity assay, NIH3T3; format: cell-based; conditions: 48 h of drug treatment (footnote), average of three experiments
Description: as §1, §3

A549 = conditions: lung cancer; 48 h of drug treatment; average of three experiments; cited from earlier work
MCF-7 = conditions: breast cancer; 48 h of drug treatment; average of three experiments; cited from earlier work
HeLa = conditions: cervical cancer; 48 h of drug treatment; average of three experiments; cited from earlier work
[2] = tested on: A549, MCF-7, B16, HeLa and NIH3T3 cell lines; assay: MTT cytotoxicity assay, all the cell lines tested; format: cell-based; conditions: summary over A549, MCF-7, B16, HeLa, read-out: IC50 against all the cell lines tested
Description: as §1, with “500×g.” for “500×g. Serial dilutions of cells were made from 1×10^6 to 1×10^3 cells per mL The cells were seeded in triplicate in a 96 well plate. The cells were seeded in triplicate in a 96 well plate.”
as §2

SMILES: COc1cc(-c2nc(CN)cc3c2[nH]c2ccccc23)cc(OC)c1OC [Compound 21b, (1-(3,4,5-trimethoxyphenyl)-9H-pyrido[3,4-b]indol-3-yl)methanamine]
IC50 (A549): 15100 nM
IC50 (MCF-7): 18600 nM
IC50 (HeLa): 21700 nM

SMILES: COc1ccc(-c2nc(CN)cc3c2[nH]c2ccccc23)cc1 [Compound 21c, (1-(4-methoxyphenyl)-9H-pyrido[3,4-b]indol-3-yl)methanamine]
IC50 (A549): 17800 nM
IC50 (MCF-7): 18900 nM
IC50 (HeLa): 18600 nM

SMILES: NCc1cc2c([nH]c3ccccc32)c(-c2ccc(C(F)(F)F)cc2)n1 [Compound 21e]
IC50 (A549): 15800 nM
IC50 (MCF-7): 12000 nM
IC50 (HeLa): 15800 nM

SMILES: COc1cccc2c1C(=O)c1c(O)c3c(c(O)c1C2=O)C[C@@](O)(C(=O)CO)C[C@@H]3O[C@H]1C[C@H](N)[C@H](O)[C@H](C)O1 [Doxorubicin, reference compound]
IC50 (MCF-7 (breast cancer)): 580 ± 0.2 nM
IC50 (B16 (melanoma)): 670 ± 0.7 nM
IC50 (HeLa (cervical cancer)): 780 ± 0.5 nM
IC50 [1]: 1720 ± 0.8 nM
IC50 [2]: > 500 nM

The next lines start with results.

melting point: 145 to 148 °C
SMILES: COc1ccc(-c2nc(CNC(=O)/C=C/c3ccc(F)cc3)cc3c2[nH]c2ccccc23)cc1 [Compound 3c, (E)-3-(4-fluorophenyl)-N-((1-(4-methoxyphenyl)-9H-pyrido[3,4-b]indol-3-yl)methyl)acrylamide]
IC50 (A549 (lung cancer)): 20.2 ± 1.3 nM
IC50 (MCF-7 (breast cancer)): 18.2 ± 0.7 nM
IC50 (B16 (melanoma)): 21.9 ± 0.3 nM
IC50 (HeLa (cervical cancer)): 22.8 ± 0.6 nM
IC50 [1]: 36.9 ± 1.6 nM

melting point: 230 to 232 °C
SMILES: COc1ccc(-c2nc(CNC(=O)/C=C/c3cc(F)cc(F)c3)cc3c2[nH]c2ccccc23)cc1 [Compound 3d, (E)-3-(3,5-difluorophenyl)-N-((1-(4-methoxyphenyl)-9H-pyrido[3,4-b]indol-3-yl)methyl)acrylamide]
IC50 (A549 (lung cancer)): 20 ± 1.1 nM
IC50 (MCF-7 (breast cancer)): 17.2 ± 1.2 nM
IC50 (B16 (melanoma)): 23.87 ± 0.2 nM
IC50 (HeLa (cervical cancer)): 24.6 ± 0.4 nM
IC50 [1]: 37.5 ± 1.3 nM

melting point: 130 to 135 °C
SMILES: COc1ccc(-c2nc(CNC(=O)/C=C/c3cc(OC)ccc3OC)cc3c2[nH]c2ccccc23)cc1 [Compound 3e, (E)-3-(2,5-dimethoxyphenyl)-N-((1-(4-methoxyphenyl)-9H-pyrido[3,4-b]indol-3-yl)methyl)acrylamide]
IC50 (A549 (lung cancer)): 18.9 ± 1.2 nM
IC50 (MCF-7 (breast cancer)): 16.5 ± 0.7 nM
IC50 (B16 (melanoma)): 22.1 ± 0.4 nM
IC50 (HeLa (cervical cancer)): 25.4 ± 0.3 nM
IC50 [1]: 34.4 ± 1.6 nM

melting point: 215 to 220 °C
SMILES: COc1ccc(-c2nc(CNC(=O)/C=C/c3ccc(O)c(OC)c3)cc3c2[nH]c2ccccc23)cc1 [Compound 3g, (E)-3-(4-hydroxy-3-methoxyphenyl)-N-((1-(4-methoxyphenyl)-9H-pyrido[3,4-b]indol-3-yl)methyl)acrylamide]
IC50 (A549 (lung cancer)): 21.2 ± 1.5 nM
IC50 (MCF-7 (breast cancer)): 17.2 ± 0.5 nM
IC50 (B16 (melanoma)): 19.8 ± 0.5 nM
IC50 (HeLa (cervical cancer)): 24.87 ± 0.2 nM
IC50 [1]: 39.9 ± 1.6 nM
